{
  "source": "paper PMC4460047",
  "about": "(PLoS ONE, 2015)",
  "key": {"[1]": {"tested_on": "amidase activity in rat liver homogenate", "assay_type": "biochemical", "excerpt": "Fig 8 Role of amidase activity on compound degradation in rat liver homogenate."}, "[2]": {"tested_on": "liver FAAH", "set-up": "method as in PMID 17217969", "conditions": "cited from earlier work"}, "[3]": {"assay": "Chemical stability in phosphate buffered saline pH 7.4", "assay_type": "physicochemical", "conditions": "percent remaining after 6 h of incubation at 37°C in PBS buffer pH 7.4", "experimental": "(§1) The chemical and metabolic stability of PEA and all prodrugs were studied by incubating each compound (5 μL of a […] solution in DMSO, or DMSO as control) with 495 μL of 10 mM phosphate buffered saline pH 7.4 for chemical stability, 80% v/v rat plasma or 20% w/v rat liver homogenate prepared accordingly to previously described procedures for metabolic stability, reaching a final concentration of 50 nm for the test compound.\n(§2) Rat plasma and liver samples were pre-incubated at 37°C for 10 min before adding the compounds. After incubation for different time periods (0, 15, 30, 60, 120, 240 and 360 min), samples were deproteinized by adding 100 μL of acetonitrile with 75 nmol L^-1 IS (PEA-d4). The samples were centrifuged (14 000 g, 10 min, 4°C), and the supernatants were analyzed by HPLC–ESI–MS/MS. For each tested compound, a multiple reaction monitoring (MRM) ESI–MS/MS method was set up in order to monitor the relative concentration of compound and released PEA at the different incubation times, compared to the time t = 0, in rat plasma and liver homogenate."}, "[4]": {"assay": "Stability and PEA release in 80% v/v rat plasma", "assay_type": "in vitro ADME", "experimental": "as §1, §2\nCmax and tmax in rat plasma were read from the raw data as the coordinates of the highest concentration observed. A Thermo TSQ Quantum triple-quadrupole mass spectrometer (Thermo Italia, Milan, Italy) with heated electrospray ionization (H-ESI) ion source was used for mass detection and analysis. Mass spectrometric analyses were done in positive ion mode. H-ESI interface parameters were set as follows: probe middle (D) position; capillary temperature 270°C; spray voltage 3.0 kV. Nitrogen was used as nebulizing gas at the following pressure: sheath gas 35 psi; auxiliary gas 15 arbitrary units (a.u.). Argon was used as the collision gas at a pressure of approximately 1.5 mtorr (1 torr = 133.3 Pa). For quantitative analysis, the following parent ion → product ions transitions were selected: PEA (1): m/z 300.2 → m/z 62.3 (tube lens 60 V; collision energy 19 eV); PEA-d4 (Internal Standard): m/z 304.2 → m/z 66.3 + m/z 287.2 (tube lens 72 V; collision energy 15, 12 eV). MRM transitions, tube lens voltages and collision energies for compounds 3–5, 7–9, 19–24, 26–31, and 33 are reported in the S1 File. […] The coefficients of correlation (r^2) were >0.99 for all curves. The LOQ was 1 nmol mL^−1 for all analytes. Extraction efficiency was determined by comparing the peak area ratio of spiked samples at three concentration levels (low, intermediate, and high) to those of extracted charcoal treated blank plasma spiked with the corresponding concentrations. The mean extraction recovery ranged from 109% to 91% for all compounds. The specificity of the assay was evaluated by comparison of HPLC–ESI–MS/MS chromatograms of the analytes at the LOQ to those of charcoal treated blank plasma samples in triplicate."}, "[5]": {"assay": "Stability in 20% w/v rat liver homogenate", "assay_type": "in vitro ADME", "experimental": "as §1, §2"}, "[6]": {"assay": "Plasma levels after oral administration to Wistar rats", "assay_type": "in vivo, rat", "conditions": "for AUC(0-t): Wistar, administered compound, mean±SEM, read-out: AUC0- 480 (converted); for AUC(0-t) / Cmax of administered compound in rat plasma / Time of Cmax of administered compound in rat plasma: p.o.; for Cmax of administered compound in rat plasma / Time of Cmax of administered compound in rat plasma: PEA 100 mg kg-1, 20, 28 145 mg kg-1", "experimental": "Twenty-seven male Wistar rats (Charles River Laboratories, Italy), 150–250 g in weight, were used in the study. Number of animals was calculated by G-power a priori analysis (α = 0.05 and β = 0.05). Animals were housed in group in policarbonate cages (Tecniplast, Italy) in a conventional facility with controlled temperature 22±1°C, a relative humidity of 55±5%, and a 12 h light/dark cycle (6:00 am to 6:00 pm). The rats were provided standard pellet diet (4RF21 GLP Mucedola, Italy) and water ad libitum throughout the study. The experiments were started only after acclimatization of animals to the laboratory conditions. Before the experiments, rats were fasted for 18 h, with free access to drinking water. Animals were randomized in three experimental groups (nine animals for each group) receiving respectively L-Val-PEA (20), D-Val-PEA (28) and PEA (1).\nThe day of the experiments substances were turned into a corn oil suspension, after ultrasound and vortexing and they were administered to rats between 8.00 and 10.00 am by gastric gavage at the equimolar doses of 145 mg kg^-1 for L- and D-Val-PEA (20, 28) and 100 mg kg^-1 of PEA (1). Blood samples were collected via sub-tongue puncture from each anaesthetized rat (2% isofluran in air) to minimize any suffering. Blood samples of 0.2 mL were collected before treatment and at 15, 30, 60, 120, 240, 360 and 480 min post-dosing into EDTA-treated tubes (Sarstedt, Germany), immediately centrifuged (5000 rpm, 10 min, 4°C; refrigerated microcentrifuge Z 216 MK, Hermle LaborTechnik). Resulting plasma was immediately processed by protein precipitation with ice-cold acetonitrile containing the IS 75 nmol L^-1 (PEA-d4) and analyzed as previously described. AUC values were calculated employing the software add-ons of Microsoft Excel."}, "[7]": {"conditions": "Beagle dogs, oral 30 mg kg-1; cited from earlier work"}, "[8]": {"conditions": "after addition of 25 pmol of PEA, 80% v/v rat plasma"}},
  "data": [
    {"smiles": "NC(=O)c1cccc(-c2cccc(OC(=O)NC3CCCCC3)c2)c1", "note": "[URB597, cyclohexylcarbamic acid 3'-carbamoylbiphenyl-3-yl ester]", "values": [
      {"measurement": "Effect on PEA hydrolysis", "setting": "[1]; URB597 10 μm pre-incubation", "result": "complete inhibition of PEA hydrolysis"},
      {"measurement": "Effect on conversion of 20 into PEA", "setting": "[1]; URB597 10 μm pre-incubation", "result": "quantitative conversion of 20 into PEA"},
      {"measurement": "Effect on PEA concentrations vs control incubations of PEA and 20", "setting": "[1]; URB597 100 nm, 10 min pretreatment, p<0.05", "result": "partial, but statistically significant, increase of PEA concentrations"},
      {"measurement": "IC50", "setting": "[2]", "result": "~3", "unit": "nM"}
    ]},
    {"smiles": "CCCCCCCCCCCCCCCC(=O)NCCO", "note": "[compound 1, Palmitoylethanolamide, reference compound]", "values": [
      {"measurement": "%Compd at 6 h, pH 7.4", "setting": "[3]", "result": "95 ± 1", "unit": "%"},
      {"measurement": "%Compd at 6 h, pH 7.4", "setting": "[3]; listed as PEA", "result": 95, "unit": "%"},
      {"measurement": "PEA concentration in rat plasma after 1 h", "setting": "[4]; [8]", "result": "56.2 ± 4.3", "unit": "nM"},
      {"measurement": "PEA concentration in rat plasma after 6 h", "setting": "[4]; [8]", "result": "44.0 ± 3.2", "unit": "nM"},
      {"measurement": "PEA concentration in rat plasma at starting point", "setting": "[4]; [8]", "result": "71.9 ± 2.1", "unit": "nM"},
      {"measurement": "remaining at 6 h, 50 nM", "setting": "[4]; pH 7.4, 80% v/v rat plasma, 37°C, 6 h, read-out: Percent remaining after 6 h incubation in rat plasma", "result": "70 ± 2", "unit": "%"},
      {"measurement": "PEA concentration in rat liver homogenate after 120 min", "setting": "[5]; no detectable basal PEA levels", "result": "4.0 ± 1.2", "unit": "nM"},
      {"measurement": "half-life at 50 nM", "setting": "[5]; rat, 20% w/v rat liver homogenate, rat liver homogenate, 37°C, read-out: Rat Liver Compd t 1/2", "result": "~0.417", "unit": "h"},
      {"measurement": "AUC(0-t)", "setting": "[6]; male, rat, plasma, po, n = 9", "result": 109, "unit": "ng·h/mL"},
      {"measurement": "Increase of PEA basal plasma values at Cmax", "setting": "[6]; p.o. PEA 100 mg kg-1, 15 min", "result": 20, "unit": "fold"},
      {"measurement": "Cmax of administered compound in rat plasma", "setting": "[6]", "result": "420 ± 132", "unit": "nm"},
      {"measurement": "Time of Cmax of administered compound in rat plasma", "setting": "[6]", "result": 15, "unit": "min"},
      {"measurement": "Increase in basal plasma levels at Cmax", "setting": "[7]", "result": "five-fold increase"},
      {"measurement": "Time of maximal plasma concentration (Cmax)", "setting": "[7]", "result": "1 to 2", "unit": "h"}
    ]},
    {"smiles": "CCCCCCCCCCCCCCCC(=O)NCCOC(=O)[C@H](N)C(C)C.Cl", "note": "[compound 28, 2-(Palmitoylamino)ethyl D-valinate hydrochloride]", "values": [
      {"measurement": "%Compd at 6 h, pH 7.4", "setting": "[3]", "result": "87 ± 2", "unit": "%"},
      {"measurement": "Rat plasma half-life relative to L-Val-PEA (20)", "setting": "[4]; rat plasma", "result": "over 6 fold"},
      {"measurement": "half-life at 50 nM", "setting": "[4]; rat, 80% v/v rat plasma, pH 7.4, 80% v/v rat plasma, 37°C, 50 nm compound, read-out: Rat Plasma Compd t 1/2", "result": "2.88 ± 0.0667", "unit": "h"},
      {"measurement": "remaining at 2 h, 50 nM", "setting": "[5]; rat, 20% w/v rat liver homogenate, 37°C, 2 h, read-out: Percent remaining after 2 h incubation in rat liver homogenate", "result": "67 ± 9", "unit": "%"},
      {"measurement": "AUC(0-t)", "setting": "[6]; male, rat, plasma, po, n = 9", "result": 231, "unit": "ng·h/mL"},
      {"measurement": "concentration at 15 min", "setting": "[6]; male, rat, plasma, po, p.o. 145 mg kg-1, Wistar rats, mean ± SEM, n = 9, read-out: Prodrug Conc in plasma, 15 min", "result": 907, "unit": "nM"},
      {"measurement": "concentration at 30 min", "setting": "[6]; male, rat, plasma, po, p.o. 145 mg kg-1, Wistar rats, mean ± SEM, n = 9, read-out: Prodrug Conc in plasma, 30 min", "result": 280, "unit": "nM"},
      {"measurement": "concentration at 60 min", "setting": "[6]; male, rat, plasma, po, p.o. 145 mg kg-1, Wistar rats, mean ± SEM, n = 9, read-out: Prodrug Conc in plasma, 60 min", "result": 65.9, "unit": "nM"},
      {"measurement": "concentration at 120 min", "setting": "[6]; male, rat, plasma, po, p.o. 145 mg kg-1, Wistar rats, mean ± SEM, n = 9, read-out: Prodrug Conc in plasma, 120 min", "result": 56.4, "unit": "nM"},
      {"measurement": "concentration at 240 min", "setting": "[6]; male, rat, plasma, po, p.o. 145 mg kg-1, Wistar rats, mean ± SEM, n = 9, read-out: Prodrug Conc in plasma, 240 min", "result": 39.9, "unit": "nM"},
      {"measurement": "concentration at 360 min", "setting": "[6]; male, rat, plasma, po, p.o. 145 mg kg-1, Wistar rats, mean ± SEM, n = 9, read-out: Prodrug Conc in plasma, 360 min", "result": 11.4, "unit": "nM"},
      {"measurement": "concentration at 480 min", "setting": "[6]; male, rat, plasma, po, p.o. 145 mg kg-1, Wistar rats, mean ± SEM, n = 9, read-out: Prodrug Conc in plasma, 480 min", "result": 10.1, "unit": "nM"},
      {"measurement": "Cmax of administered compound in rat plasma", "setting": "[6]", "result": 907, "unit": "nm"},
      {"measurement": "Time of Cmax of administered compound in rat plasma", "setting": "[6]", "result": 15, "unit": "min"}
    ]}
  ]
}
